Laboratory results as given in PMC3639963, “A New Class of Small Molecule Inhibitor of BMP Signaling” (PLoS ONE, 2013).
Read-outs that look alike come from different tables or passages of the source.

Tests used:
BMPRII = biological target: T1, BMPRII (Homo sapiens, UniProt Q13873); test: DSF thermal shift; assay type: binding; settings: 10 µM inhibitor; read-out: Tm shift
T1 construct: purchased Nanosyn (enzymatic panel); SGC in-house recombinant human kinases (DSF panel); Invitrogen (ALK1-6)
Summary of the method: (§1)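 Each recombinant human kinase (1–2 µM) was mixed with inhibitor at 10 µM. Samples were then heated in a real-time PCR machine to record protein melting.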

CK1γ3 = biological target: T2, CK1γ3 (Homo sapiens, UniProt Q9Y6M4); test: DSF thermal shift; assay type: binding; settings: 10 µM inhibitor; read-out: Tm shift
T2 construct: purchased Nanosyn (enzymatic panel); SGC in-house recombinant human kinases (DSF panel); Invitrogen (ALK1-6)
Summary of the method: as §1

DAPK3 = biological target: T3, DAPK3 (Homo sapiens, UniProt O43293); test: DSF thermal shift; assay type: binding; settings: 10 µM inhibitor; read-out: Tm shift
T3 construct: purchased Nanosyn (enzymatic panel); SGC in-house recombinant human kinases (DSF panel); Invitrogen (ALK1-6)
Summary of the method: as §1

DCAMKL1 = biological target: T4, DCAMKL1 (Homo sapiens, UniProt O15075); test: DSF thermal shift; assay type: binding; settings: 10 µM inhibitor; read-out: Tm shift
T4 construct: purchased Nanosyn (enzymatic panel); SGC in-house recombinant human kinases (DSF panel); Invitrogen (ALK1-6)
Summary of the method: as §1

DRAK1 = biological target: T5, DRAK1 (Homo sapiens, UniProt Q9UEE5); test: DSF thermal shift; assay type: binding; settings: 10 µM inhibitor; read-out: Tm shift
T5 construct: purchased Nanosyn (enzymatic panel); SGC in-house recombinant human kinases (DSF panel); Invitrogen (ALK1-6)
Summary of the method: as §1

GUCY2D = biological target: T6, GUCY2D (Homo sapiens, UniProt Q02846); test: DSF thermal shift; assay type: binding; settings: 10 µM inhibitor; read-out: Tm shift
T6 construct: purchased Nanosyn (enzymatic panel); SGC in-house recombinant human kinases (DSF panel); Invitrogen (ALK1-6)
Summary of the method: as §1

MEK6 = biological target: T7, MEK6 (Homo sapiens, UniProt P52564); test: DSF thermal shift; assay type: binding; settings: 10 µM inhibitor; read-out: Tm shift
T7 construct: purchased Nanosyn (enzymatic panel); SGC in-house recombinant human kinases (DSF panel); Invitrogen (ALK1-6)
Summary of the method: as §1

PCTAIRE1 = biological target: T8, PCTAIRE1 (Homo sapiens, UniProt Q00536); test: DSF thermal shift; assay type: binding; settings: 10 µM inhibitor; read-out: Tm shift
T8 construct: purchased Nanosyn (enzymatic panel); SGC in-house recombinant human kinases (DSF panel); Invitrogen (ALK1-6)
Summary of the method: as §1

PKD2 = biological target: T9, PKD2 (Homo sapiens, UniProt Q9BZL6); test: DSF thermal shift; assay type: binding; settings: 10 µM inhibitor; read-out: Tm shift
T9 construct: purchased Nanosyn (enzymatic panel); SGC in-house recombinant human kinases (DSF panel); Invitrogen (ALK1-6)
Summary of the method: as §1

PKD3 = biological target: T10, PKD3 (Homo sapiens, UniProt O94806); test: DSF thermal shift; assay type: binding; settings: 10 µM inhibitor; read-out: Tm shift
T10 construct: purchased Nanosyn (enzymatic panel); SGC in-house recombinant human kinases (DSF panel); Invitrogen (ALK1-6)
Summary of the method: as §1

PKMYT1 = biological target: T11, PKMYT1 (Homo sapiens, UniProt Q99640); test: DSF thermal shift; assay type: binding; settings: 10 µM inhibitor; read-out: Tm shift
T11 construct: purchased Nanosyn (enzymatic panel); SGC in-house recombinant human kinases (DSF panel); Invitrogen (ALK1-6)
Summary of the method: as §1

STK33 = biological target: T12, STK33 (Homo sapiens, UniProt Q9BYT3); test: DSF thermal shift; assay type: binding; settings: 10 µM inhibitor; read-out: Tm shift
T12 construct: purchased Nanosyn (enzymatic panel); SGC in-house recombinant human kinases (DSF panel); Invitrogen (ALK1-6)
Summary of the method: as §1

TTK = biological target: T13, TTK (Homo sapiens, UniProt P33981); test: DSF thermal shift; assay type: binding; settings: 10 µM inhibitor; read-out: Tm shift
T13 construct: purchased Nanosyn (enzymatic panel); SGC in-house recombinant human kinases (DSF panel); Invitrogen (ALK1-6)
T13 sequence (P33981 1-857): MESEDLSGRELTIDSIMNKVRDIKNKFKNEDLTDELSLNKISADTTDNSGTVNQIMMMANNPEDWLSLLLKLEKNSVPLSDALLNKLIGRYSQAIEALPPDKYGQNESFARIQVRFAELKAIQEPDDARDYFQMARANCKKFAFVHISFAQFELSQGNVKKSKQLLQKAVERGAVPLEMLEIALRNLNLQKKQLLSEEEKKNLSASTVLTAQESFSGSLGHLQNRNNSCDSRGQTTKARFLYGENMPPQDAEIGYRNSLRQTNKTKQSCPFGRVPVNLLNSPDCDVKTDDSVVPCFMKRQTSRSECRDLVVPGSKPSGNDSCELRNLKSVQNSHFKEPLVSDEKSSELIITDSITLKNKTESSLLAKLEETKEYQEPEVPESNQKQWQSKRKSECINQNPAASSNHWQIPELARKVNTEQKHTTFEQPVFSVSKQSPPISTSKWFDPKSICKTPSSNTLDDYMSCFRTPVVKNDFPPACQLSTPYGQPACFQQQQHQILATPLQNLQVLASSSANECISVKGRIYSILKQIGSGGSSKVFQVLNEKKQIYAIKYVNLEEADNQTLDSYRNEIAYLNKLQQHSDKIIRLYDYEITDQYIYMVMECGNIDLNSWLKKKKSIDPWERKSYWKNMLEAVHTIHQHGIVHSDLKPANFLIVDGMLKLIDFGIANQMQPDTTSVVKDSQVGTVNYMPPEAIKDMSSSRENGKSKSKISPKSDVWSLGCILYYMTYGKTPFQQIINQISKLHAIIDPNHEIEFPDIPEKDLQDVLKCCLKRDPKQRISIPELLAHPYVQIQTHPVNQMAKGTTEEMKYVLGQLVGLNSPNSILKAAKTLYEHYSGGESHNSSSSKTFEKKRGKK
Summary of the method: as §1

VRK1 = biological target: T14, VRK1 (Homo sapiens, UniProt Q99986); test: DSF thermal shift; assay type: binding; settings: 10 µM inhibitor; read-out: Tm shift
T14 construct: purchased Nanosyn (enzymatic panel); SGC in-house recombinant human kinases (DSF panel); Invitrogen (ALK1-6)
Summary of the method: as §1

KDR = tested on: KDR; design: method as in PMID 20020776; settings: read-out: reported KDR IC50; cited from earlier work
[1] = tested on: BMP4 induced Smad1/5/8 phosphorylation in C2C12 cells; test: BMP4 induced Smad1/5/8 phosphorylation, Western blot; assay type: cell-based; settings: for IC50: Mus musculus
Experimental: (§2) C2C12 and HEK293 cells were grown in DMEM supplemented with 10% FCS (PAA) and seeded at a density of 1 x 10^5 cells per well in 6-well plates. The next day the cells were starved in DMEM containing 1% FCS for 5 hours. Inhibitors were added at the indicated concentrations for 30 minutes followed by 10 ng/mL BMP4 (Peprotech), 100 ng/mL BMP6 (Peprotech), 100 ng/mL Activin A (Peprotech) or 2 ng/mL TGF-β1 (Cell Signaling) for 1 hour. Cells were washed in PBS and lysed on ice for 30 minutes in lysis buffer (20 mM Tris-HCl pH 7.5, 150 mM NaCl, 1% Triton X-100, 25 mM NaF, 25 mM Na β-glycerophosphate, 2 mM Na3VO4) containing protease inhibitors (Roche). Protein concentration in the clarified lysate was determined by Bradford Assay (Pierce) and 15 µg run on 4–12% Bis-Tris gel (Biorad). The protein was transferred onto nitrocellulose membrane (GE Healthcare) and probed with the relevant antibody at 4°C overnight (Cell Signaling: anti-Smad 1 (#9743), anti-P-Smad 1/5/8 (#9511), anti-Smad 2 (#5339), anti-P-Smad 2 (#3101). After subsequent incubation with HRP-conjugated anti-rabbit antibody, protein bands were detected using ECL (Pierce) and an LAS4000 image reader. Cells were purchased originally from the European Collection of Cell Cultures (ECACC) available through Sigma.

[2] = tested on: BMP4 response (BRE-luciferase) in C2C12 cells; test: BRE-luciferase reporter assay; assay type: cell-based
Experimental: C2C12 cells were co-transfected using lipofectamine 2000 with BRE-luciferase and Renilla Luciferase pRLTK (Promega) following the manufacturer’s instructions. 16 hours post transfection cells were starved in DMEM containing 1% FCS for 5 hours. Inhibitors were added to triplicate wells at the indicated concentrations for 30 minutes, followed by overnight stimulation with 10 ng/ml BMP4 (Peprotech). Luciferase activities were determined according to the Dual-Luciferase® Reporter Assay System (Promega) using Renilla for normalization of transfection efficiency.

[3] = tested on: BMP6-induced Smad1/5/8 phosphorylation in C2C12 cells; test: BMP6-induced Smad1/5/8 phosphorylation, Western blot; assay type: cell-based; settings: for inhibition of BMP6-induced Smad1/5/8 phosphorylation: qualitative
Experimental: as §2

T3 sequence (O43293 whole entry): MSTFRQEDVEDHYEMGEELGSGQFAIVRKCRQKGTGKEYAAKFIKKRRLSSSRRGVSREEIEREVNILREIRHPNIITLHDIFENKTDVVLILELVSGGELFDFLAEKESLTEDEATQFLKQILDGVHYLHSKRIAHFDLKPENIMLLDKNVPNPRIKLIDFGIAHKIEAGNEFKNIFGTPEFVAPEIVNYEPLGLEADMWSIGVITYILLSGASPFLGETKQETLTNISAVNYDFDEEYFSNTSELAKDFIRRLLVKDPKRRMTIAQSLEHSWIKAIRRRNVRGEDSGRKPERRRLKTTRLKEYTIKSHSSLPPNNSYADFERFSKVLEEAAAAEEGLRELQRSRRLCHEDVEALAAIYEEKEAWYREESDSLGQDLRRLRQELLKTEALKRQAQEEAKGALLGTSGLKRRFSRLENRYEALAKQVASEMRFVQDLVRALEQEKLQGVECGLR
T7 sequence (P52564 whole entry): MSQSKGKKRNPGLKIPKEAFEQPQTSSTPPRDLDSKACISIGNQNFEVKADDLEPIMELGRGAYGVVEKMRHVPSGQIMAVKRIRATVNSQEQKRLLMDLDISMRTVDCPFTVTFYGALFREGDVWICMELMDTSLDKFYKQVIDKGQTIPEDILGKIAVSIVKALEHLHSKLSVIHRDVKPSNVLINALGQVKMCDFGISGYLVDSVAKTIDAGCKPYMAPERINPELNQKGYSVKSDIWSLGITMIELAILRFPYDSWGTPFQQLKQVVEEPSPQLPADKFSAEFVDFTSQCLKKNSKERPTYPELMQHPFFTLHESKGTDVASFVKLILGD
T2 sequence (Q9Y6M4 whole entry): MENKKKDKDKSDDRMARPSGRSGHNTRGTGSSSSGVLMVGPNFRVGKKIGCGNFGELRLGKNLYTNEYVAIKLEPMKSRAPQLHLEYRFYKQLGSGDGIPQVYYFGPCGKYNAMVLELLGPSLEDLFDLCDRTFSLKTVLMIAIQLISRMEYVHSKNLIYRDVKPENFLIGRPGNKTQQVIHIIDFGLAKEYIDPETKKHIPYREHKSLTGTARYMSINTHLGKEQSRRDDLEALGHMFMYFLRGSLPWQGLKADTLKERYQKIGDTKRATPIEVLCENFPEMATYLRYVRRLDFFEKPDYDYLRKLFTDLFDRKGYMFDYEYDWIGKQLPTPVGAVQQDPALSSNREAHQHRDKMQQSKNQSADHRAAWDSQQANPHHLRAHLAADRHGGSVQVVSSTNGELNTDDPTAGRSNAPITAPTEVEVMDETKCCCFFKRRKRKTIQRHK
T9 sequence (Q9BZL6 whole entry): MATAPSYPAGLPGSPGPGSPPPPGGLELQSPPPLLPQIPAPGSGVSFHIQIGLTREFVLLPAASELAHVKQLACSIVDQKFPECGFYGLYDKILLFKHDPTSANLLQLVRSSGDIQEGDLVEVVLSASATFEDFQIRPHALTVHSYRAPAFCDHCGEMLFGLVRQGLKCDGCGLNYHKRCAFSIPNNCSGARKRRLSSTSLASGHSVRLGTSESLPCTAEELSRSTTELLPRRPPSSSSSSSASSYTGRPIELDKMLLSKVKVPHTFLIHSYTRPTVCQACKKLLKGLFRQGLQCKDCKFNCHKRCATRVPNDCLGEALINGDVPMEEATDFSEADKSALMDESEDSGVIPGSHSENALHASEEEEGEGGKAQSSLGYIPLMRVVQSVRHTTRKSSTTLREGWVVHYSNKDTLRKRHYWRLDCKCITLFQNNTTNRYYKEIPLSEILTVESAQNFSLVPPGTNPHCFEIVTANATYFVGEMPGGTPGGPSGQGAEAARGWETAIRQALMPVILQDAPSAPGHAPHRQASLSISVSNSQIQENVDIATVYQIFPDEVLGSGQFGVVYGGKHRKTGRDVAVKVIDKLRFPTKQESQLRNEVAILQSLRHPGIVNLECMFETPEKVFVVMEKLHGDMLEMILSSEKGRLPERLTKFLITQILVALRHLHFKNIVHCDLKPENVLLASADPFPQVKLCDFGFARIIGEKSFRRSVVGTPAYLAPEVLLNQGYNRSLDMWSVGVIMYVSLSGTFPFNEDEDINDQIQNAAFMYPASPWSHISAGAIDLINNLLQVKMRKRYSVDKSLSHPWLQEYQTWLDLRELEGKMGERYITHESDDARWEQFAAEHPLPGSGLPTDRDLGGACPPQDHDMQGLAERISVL
T12 sequence (Q9BYT3 whole entry): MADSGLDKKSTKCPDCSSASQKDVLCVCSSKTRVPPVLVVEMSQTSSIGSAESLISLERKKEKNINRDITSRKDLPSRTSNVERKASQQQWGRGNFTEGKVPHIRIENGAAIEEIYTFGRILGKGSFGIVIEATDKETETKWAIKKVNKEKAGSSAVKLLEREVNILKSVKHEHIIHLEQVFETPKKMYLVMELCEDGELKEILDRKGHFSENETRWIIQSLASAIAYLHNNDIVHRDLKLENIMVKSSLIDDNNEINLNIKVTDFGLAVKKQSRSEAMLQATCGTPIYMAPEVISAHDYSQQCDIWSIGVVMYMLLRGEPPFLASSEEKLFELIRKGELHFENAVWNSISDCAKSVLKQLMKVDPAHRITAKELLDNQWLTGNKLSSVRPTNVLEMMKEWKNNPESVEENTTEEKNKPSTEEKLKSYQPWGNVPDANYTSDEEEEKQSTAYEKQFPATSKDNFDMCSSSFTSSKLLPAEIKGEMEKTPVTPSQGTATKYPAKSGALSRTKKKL
T1 sequence (Q13873 27-1038): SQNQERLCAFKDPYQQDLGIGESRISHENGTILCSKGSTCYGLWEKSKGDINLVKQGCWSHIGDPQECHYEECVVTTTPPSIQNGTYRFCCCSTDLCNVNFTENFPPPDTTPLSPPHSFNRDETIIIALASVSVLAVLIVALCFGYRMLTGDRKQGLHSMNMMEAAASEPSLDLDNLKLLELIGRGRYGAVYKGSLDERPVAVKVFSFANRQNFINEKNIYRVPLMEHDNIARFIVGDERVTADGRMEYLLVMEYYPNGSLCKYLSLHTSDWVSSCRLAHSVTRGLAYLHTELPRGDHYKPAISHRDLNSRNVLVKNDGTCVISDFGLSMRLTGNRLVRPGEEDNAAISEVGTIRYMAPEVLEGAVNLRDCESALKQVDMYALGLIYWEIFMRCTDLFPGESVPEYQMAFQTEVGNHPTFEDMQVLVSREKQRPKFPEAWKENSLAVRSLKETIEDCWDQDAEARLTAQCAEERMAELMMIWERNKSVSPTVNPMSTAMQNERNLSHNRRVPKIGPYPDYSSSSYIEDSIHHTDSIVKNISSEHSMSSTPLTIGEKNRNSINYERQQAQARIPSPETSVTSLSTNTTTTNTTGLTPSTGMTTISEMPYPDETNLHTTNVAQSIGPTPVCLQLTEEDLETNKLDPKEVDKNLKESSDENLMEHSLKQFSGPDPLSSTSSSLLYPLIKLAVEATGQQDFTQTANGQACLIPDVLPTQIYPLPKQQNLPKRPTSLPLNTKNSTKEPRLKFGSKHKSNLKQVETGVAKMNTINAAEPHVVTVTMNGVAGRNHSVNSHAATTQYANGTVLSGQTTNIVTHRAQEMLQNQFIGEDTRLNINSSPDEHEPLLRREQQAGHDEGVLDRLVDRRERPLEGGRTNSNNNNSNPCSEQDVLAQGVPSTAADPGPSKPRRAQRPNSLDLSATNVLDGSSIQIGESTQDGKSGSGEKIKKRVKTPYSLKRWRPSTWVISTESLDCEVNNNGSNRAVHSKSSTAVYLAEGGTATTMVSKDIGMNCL
T5 sequence (Q9UEE5 whole entry): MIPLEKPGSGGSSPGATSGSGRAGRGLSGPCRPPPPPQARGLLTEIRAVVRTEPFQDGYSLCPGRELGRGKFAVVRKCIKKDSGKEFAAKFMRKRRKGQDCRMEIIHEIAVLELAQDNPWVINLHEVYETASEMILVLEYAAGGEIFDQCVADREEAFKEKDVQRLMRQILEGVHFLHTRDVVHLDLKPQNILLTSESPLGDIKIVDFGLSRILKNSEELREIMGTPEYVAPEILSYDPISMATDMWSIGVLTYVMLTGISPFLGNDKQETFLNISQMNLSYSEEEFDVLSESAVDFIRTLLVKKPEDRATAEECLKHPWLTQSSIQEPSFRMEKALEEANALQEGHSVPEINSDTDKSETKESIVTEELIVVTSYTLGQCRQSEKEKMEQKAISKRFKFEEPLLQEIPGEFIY
T10 sequence (O94806 whole entry): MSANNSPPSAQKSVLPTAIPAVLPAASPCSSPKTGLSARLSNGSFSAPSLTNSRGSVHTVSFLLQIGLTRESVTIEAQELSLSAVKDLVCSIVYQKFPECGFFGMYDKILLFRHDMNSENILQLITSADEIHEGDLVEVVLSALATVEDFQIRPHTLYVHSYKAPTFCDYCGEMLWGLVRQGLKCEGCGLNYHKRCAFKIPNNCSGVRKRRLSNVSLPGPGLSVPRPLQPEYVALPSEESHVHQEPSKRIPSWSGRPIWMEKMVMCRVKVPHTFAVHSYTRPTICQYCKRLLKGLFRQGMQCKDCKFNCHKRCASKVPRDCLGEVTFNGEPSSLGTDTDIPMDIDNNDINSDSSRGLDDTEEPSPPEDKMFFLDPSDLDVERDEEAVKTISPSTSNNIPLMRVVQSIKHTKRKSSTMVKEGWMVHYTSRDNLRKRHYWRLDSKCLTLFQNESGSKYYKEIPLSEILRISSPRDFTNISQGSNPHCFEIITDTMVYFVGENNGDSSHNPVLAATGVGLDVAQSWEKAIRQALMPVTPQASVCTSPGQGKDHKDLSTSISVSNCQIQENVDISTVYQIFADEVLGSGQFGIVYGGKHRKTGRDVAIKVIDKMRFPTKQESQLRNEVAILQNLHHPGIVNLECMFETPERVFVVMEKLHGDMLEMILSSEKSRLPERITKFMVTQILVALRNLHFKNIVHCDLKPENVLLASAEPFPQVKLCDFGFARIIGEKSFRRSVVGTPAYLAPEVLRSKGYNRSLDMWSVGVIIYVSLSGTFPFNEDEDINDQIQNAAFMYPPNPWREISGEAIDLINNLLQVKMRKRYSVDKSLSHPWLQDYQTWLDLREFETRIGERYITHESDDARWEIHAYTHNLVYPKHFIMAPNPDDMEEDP

Row | ΔTm at 10 µM (BMPRII) | ΔTm at 10 µM (CK1γ3) | ΔTm at 10 µM (DAPK3) | ΔTm at 10 µM (DCAMKL1) | ΔTm at 10 µM (DRAK1) | ΔTm at 10 µM (MEK6) | ΔTm at 10 µM (PCTAIRE1) | ΔTm at 10 µM (PKD2) | ΔTm at 10 µM (PKD3) | ΔTm at 10 µM (PKMYT1) | ΔTm at 10 µM (STK33) | ΔTm at 10 µM (TTK) | ΔTm at 10 µM (VRK1) | SMILES | ΔTm at 10 µM (GUCY2D) | IC50 (KDR) | inhibition of BMP6-induced Smad1/5/8 phosphorylation [3] | also measured
1 | 1.5 °C | 1.2 °C | 1.2 °C | 0.3 °C | 9 °C | 0.1 °C | 4.7 °C | 0.1 °C | 0.9 °C | 0.1 °C | 4.2 °C | 1 °C | 0.4 °C | c1cc(-c2cnn3cc(-c4ccc(OCCN5CCCCC5)cc4)cnc23)ccn1 [Dorsomorphin] | -0.1 °C | 25 nM |  | 
2 | 3.5 °C | 2 °C | 0.2 °C | 0.1 °C | 1 °C | 1.9 °C | -1.8 °C | 0.2 °C | 1.2 °C | -0.4 °C | 1.1 °C | 1.1 °C | 0.5 °C | COc1cc(-c2cc(-c3cccc(O)c3)cnc2N)cc(OC)c1OC [K02288, 3-[6-amino-5-(3,4,5-trimethoxy-phenyl)-pyridin-3-yl]-phenol] |  |  | potently inhibited | activity weaker than control compound LDN-193189 ([1]; C2C12 cells, BMP4, P-Smad1/5/8): 10 fold; IC50 ([1]; C2C12 cells, BMP4 stimulation, read-out: apparent IC50, Smad1/5/8 phosphorylation): 100 nM; activity weaker than control compound LDN-193189 ([2]; C2C12 cells, BMP4, BRE-luciferase): 10 fold; inhibition of Smad1/5/8 phosphorylation ([3]; 50 nM, BMP6): near complete inhibition; IC50 ([3]; Mus musculus, read-out: IC50 against BMP6 signaling): < 50 nM
3 |  |  |  |  |  |  |  |  |  |  |  |  |  | c1ccc2c(-c3cnn4cc(-c5ccc(N6CCNCC6)cc5)cnc34)ccnc2c1 [LDN-193189] | -0.2 °C | 215 nM | potently inhibited | IC50 ([1]; C2C12, read-out: apparent IC50, Smad1/5/8 phosphorylation): 10 nM; IC50 ([2]; Mus musculus, C2C12, read-out: IC50, BRE-luciferase): 10 nM
